In publication PMC3498381, “Isolated Toll-like Receptor Transmembrane Domains Are Capable of Oligomerization” (PLoS ONE, 2012):
No end group written: not given here.

What was measured:
[1] = system: TLR2 TMD (functional ToxR chimera); assay: Dominant-negative (heterotypic) ToxR assay, TLR2 as dominant phenotype; type: cell-based; settings: Miller units normalized to poly-Leu* = 1 and corrected for expression, lower = stronger interaction, N in table
Excerpt: (§1) Next, we investigated heterotypic interactions of the TLRs. We specifically studied TLR2, TLR1, and TLR6 because they are cell surface expressed receptors known to form functional heterodimers. To determine the ability of these three cell surface TLRs to have heterotypic interactions within its family, we studied the ability of the TLR1, TLR2, and TLR6 TMDs to interact with the TLR receptors also expressed at the cell surface; namely, TLR1, TLR2, TLR4, TLR5, TLR6, and TLR10. We monitored these interactions using a dominant-negative ToxR assay (Fig. S1B) which works by having a second TMD expressed with a non-functional ToxR* intracellular domain. This ToxR* domain is incapable of binding the ctx promoter making any interactions with this second expressed TMD unable to produce the reporter enzyme. As such, any interaction between the functional ToxR and non-functional ToxR* TMDs will result in a reduction in signal output.
(§2) Figure 3 Cell- Surface Toll-like Recptor Heterotypic Interactions. (A) A dominant-negative ToxR assay was used to study heterotypic interactions of the cell-surface TLRs. Two TLR TMDs were encoded in the FHK12 E.coli reporter strain, one with a functional ToxR domain (dominant phenotype) and one with a nonfunctional ToxR* domain (negative phenotype). Interaction between the two different TMDs leads to a reduction in signal from that seen for homotypic interactions. The TMDs for GpA, TLR1, TLR2, and TLR6 were used with the functional ToxR domain while TMDs for poly-Leucine, TMD5, integrin αIIb, TLR1, TLR2, TLR4, TLR5, TLR6, and TLR10 were used with the nonfunctional ToxR* domain. Interactions were most prominent for the TLRs known to have heterotypic interactions – TLR2-TLR1 and TLR2-TLR6. […] We also saw interaction with the same TMD further validating the homotypic interactions. […] Each dominant phenotype was done in 3 technical replicates with each negative phenotype and >6 measurements made for each replicate. Error bars depict the standard error of the mean (n- Tables S3, S5, S7, S9). Western blots staining for MBP were performed to monitor expression levels of the constructs with the upper band being functional ToxR chimeras and the lower band being nonfunctional ToxR* chimeras – (B) GpA, (C) TLR1, (D) TLR2, and (E) TLR6. Significant differences for the same dominant phenotype were determined by use of the Tukey-Kramer test.
(§3) For heterotypic interactions one plasmid containing a functional ToxR domain (200 ng) and a second plasmid containing a non-functional ToxR* domain (200 ng) were co-transformed into chemically competent FHK12 E. coli (400 µL) by incubating on ice for 30 min, heat shock at 42°C for 90 s, incubation on ice for 2 min, and addition of SOC media (1600 µL) followed by incubation with shaking for 1 h at 37°C. This transformation mixture (50 µL) was then used to spread LB-agar plates containing cholaramphenicol (30 µg/mL), kanamycin (33 µg/mL), and ampicillin (100 µg/mL) and grown overnight at 37°C. Single colonies were selected from the plates and grown in 5 mL LB media containing cholaramphenicol (30 µg/mL), kanamycin (33 µg/mL), ampicillin (100 µg/mL), and arabinose (0.0025%) overnight (16–20 h) with shaking at 37°C. Analysis of activity was monitored as described in homotypic ToxR assays. Western blotting was done in the same manner as the homotypic ToxR assay with one band appearing for the functional ToxR construct and a second band for the nonfunctional ToxR* construct. Data were normalized to poly-Leu* Miller Units and corrected for varying protein expression levels using ImageJ (NIH) as previously reported.

[2] = system: GpA TMD (functional ToxR chimera); assay: Dominant-negative (heterotypic) ToxR assay, GpA as dominant phenotype; type: cell-based; settings: Miller units normalized to poly-Leu* = 1 and corrected for expression, lower = stronger interaction, N in table
Excerpt: as §1, §2, §3

[3] = system: TLR1 TMD (functional ToxR chimera); assay: Dominant-negative (heterotypic) ToxR assay, TLR1 as dominant phenotype; type: cell-based; settings: Miller units normalized to poly-Leu* = 1 and corrected for expression, lower = stronger interaction, N in table
Excerpt: as §1, §2, §3

[4] = system: TLR6 TMD (functional ToxR chimera); assay: Dominant-negative (heterotypic) ToxR assay, TLR6 as dominant phenotype; type: cell-based, E. coli; settings: Miller units normalized to poly-Leu* = 1 and corrected for expression, lower = stronger interaction, N in table
Excerpt: as §1, §2, §3

[5] = system: homotypic TMD-TMD interaction (ToxR / ctx promoter / β-galactosidase reporter in FHK12 E. coli); assay: Homotypic ToxR reporter assay (β-galactosidase); type: cell-based; settings: for Mean homotypic TMD interaction (ToxR): β-galactosidase Miller units normalized to GpA signal and expression levels, FHK12 E. coli, 3 replicates with >6 measurements each, N in table
Protocol: . Various plasmid constructs for this assay make it possible to monitor both homotypic and heterotypic interactions that are driven by TMD-TMD association (Fig. S1).
We first investigated homotypic interactions because the majority of the TLR family members function as homodimers. […] This ΔTM construct consists of the same maltose binding protein and ToxR domain, but lacks a TMD for proper membrane insertion (Fig. S2). Statistical analysis using the Tukey-Kramer test was performed to analyze any significant differences between all possible pairs of average interaction potentials (Table S2). […] Among the TLRs, no discernable differences in grouping based on statistical analysis at p = 0.05 were indicated as all receptors belonged to multiple groups, except for TLR1, which with the lowest interaction potential among the family of receptors only existed in one group (Table S1).
Figure 2 Toll-like Receptor Transmembrane Domain Homotypic Interactions. (A) The ToxR assay was used to study homotypic interactions of the TLR TMDs. A chimeric protein expressing the TMD of interest was monitored through β-galactosidase activity. In all cases, we saw that the TLRs have interaction potential solely from TMD-TMD interactions. Each TLR TMD interaction measurement analysis was performed on 3 technical replicates with >6 measurements for each replicate. Error bars depict the standard error of the mean (n – Table S1). Western blots staining for MBP were performed to monitor expression levels of the constructs – (B) chimeric maltose binding protein expression, (C) endogenous maltose binding protein expression. All samples were normalized to the GpA signal and expression levels.
Briefly, the ToxR plasmids containing the TMD of interest (200 ng) were transformed into chemically competent FHK12 E. coli (200 µL) by incubating on ice for 30 min, heat shock at 42°C for 90 s, incubation on ice for 2 min, and addition of SOC media (800 µL) followed by incubation with shaking for 1 h at 37°C. This transformation mixture (50 µL) was then spread on LB agar plates containing cholaramphenicol (30 µg/mL) and ampicillin (100 µg/mL) and grown overnight at 37°C. Single colonies were selected from the plates in triplicate and added to 5 mL of LB media containing cholaramphenicol (30 µg/mL), ampicillin (100 µg/mL), and arabinose (0.0025%). These cultures were incubated overnight (16–20 h) with shaking at 37°C. The β-galactosidase activity was monitored using a Beckman Coulter DTX 880 plate-reader. First 5 µL of each culture was plated >6 times in a clear 96-well flat bottom culture plate (Sarstedt) containing 100 µL of Z-buffer/chloroform (1% β-mercaptoethanol, 10% chloroform, 89% Z buffer: […], 10 mM potassium chloride, 1 mM magnesium sulfate, pH 7.0). The cell densities of each well were recorded by measuring the OD595. Bacteria were lysed by the addition of 50 µL Z-buffer/SDS (1.6% sodium dodecyl sulfate w/v in Z-buffer) and shaking at 28°C for 10 min. Enzymatic activity was measured by adding 50 µL of Z-buffer/ortho-Nitrophenyl-β-[…] (ONPG) (0.4% ONPG w/v in Z-buffer) and monitoring the reaction at 405 nm for a period of 20 min at 30 s intervals. Miller units were calculated using the equation: [drawing 1]
Western blotting was performed with antiserum recognizing the maltose-binding protein moiety of the constructs (Abcam). Data were normalized to GpA Miller Units and protein expression levels using ImageJ (NIH) as reported previously.

Row | Substance | Mean TLR2-TMD* heterotypic interaction (ToxR signal) [1] | Mean GpA-TMD* heterotypic interaction (ToxR signal) [2] | Mean TLR1-TMD* heterotypic interaction (ToxR signal) [3] | Mean TLR6-TMD* heterotypic interaction (ToxR signal) [4] | Effect of TLR2 point mutation on homotypic interaction ([5]; homotypic ToxR assay, compared with wild type TLR2 TMD (Fig. 7A)) | Mean homotypic TMD interaction (ToxR) [5]
1 | GNRASWVLV G VLG G LLLLTILVLAMWGSLIN [Integrin*, Integrin αIIb TMD fused to nonfunctional ToxR* domain, unrelated receptor, reference compound] | 0.7609 | 1.0189 | 0.7583 | 0.6106 |  | 
2 | TLR2 G593V (GNRASALVSVMCCALFLLILLTGVLCGSLIN; cysteine pairing not given here; also: fused to maltose-binding protein and ToxR activation domain, ends not given here) |  |  |  |  | no mutation demonstrated significant difference from the wild type TLR2 TMD | 
3 | GNRASLIIF G VMA G VIGTILGSLIN [GpA TMD, reference compound] |  |  |  |  |  | 1.0000
4 | TLR4*: TLR4 TMD chimera with nonfunctional ToxR* domain (negative phenotype) (GNRASTIIGVSVLVVSVVAVLVYKFYFGSLIN; also: fused to non-functional ToxR* (S87H) and maltose binding protein, ends not given here) | 1.1386 | 1.1905 | 0.8709 | 0.9610 |  | 0.5620
5 | GNRASLILF S L S I S V S LFLMVMMTASHLGSLIN [TLR7 TMD] |  |  |  |  |  | 0.4947
6 | GNRASVTAVILFFFTFFITTMVMLAALAGSLIN [TLR8 TMD] |  |  |  |  |  | 0.7486
7 | GNRASLFFMINTSILLIFIFIVLLIHFGSLIN [TLR3 TMD] |  |  |  |  |  | 0.8032
8 | GNRASFALSLL A V A L G L G VPMLHHLGSLIN [TLR9 TMD] |  |  |  |  |  | 0.7992
9 | GNRASWQLLAFFLAFFLDLILLIIALYLGSLIN [TMD5*, TMD5 of latent membrane protein 1 fused to nonfunctional ToxR* domain, unrelated receptor, reference compound] | 1.1904 | 1.1703 | 1.0921 | 1.1235 |  | 
10 | TLR5*: TLR5 TMD chimera with nonfunctional ToxR* domain (negative phenotype) (GNRASFSLFIVCTVTLTLFLMTILTVTGSLIN; also: fused to non-functional ToxR* (S87H) and maltose binding protein, ends not given here) | 0.9233 | 0.8934 | 0.6805 |  |  | 0.6087
11 | TLR10*: TLR10 TMD chimera with nonfunctional ToxR* domain (negative phenotype) (GNRASALLIVTIVVIMLVLGLAVAFCCLGSLIN; cysteine pairing not given here; also: fused to non-functional ToxR* (S87H) and maltose binding protein, ends not given here) | 0.3877 | 1.1244 | 0.3608 | 0.3445 |  | 0.8259
